Values joined by “and” are separate entries in the source; they are usually repeats but may differ in a detail not shown here. Equal entries are not always repeated. Inconclusive results and toxic doses are left out.
Tested on: L1210 leukemia ip in BDF1 mice, survival T/C
Test: NCI In Vivo Anticancer Drug Screen. Data for tumor model L1210 Leukemia (intraperitoneal) in B6D2F1 (BDF1) mice
Conditions: endpoint: mean survival time, higher = longer survival
Outline: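 In this screen, tumor-bearing mice given compound are compared to those given vehicle, and their survival values are reported as a treated-to-control quotient.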

[1] = dose: 12.5 mg/kg/injection, schedule: Q01DX009 (ip), vehicle: saline
[2] = dose: 25.0 mg/kg/injection, schedule: Q01DX009 (ip), vehicle: saline
[3] = dose: 100.0 mg/kg/injection, schedule: Q01DX001 (ip), vehicle: carboxymethylcellulose (CMC)
[4] = dose: 200.0 mg/kg/injection, schedule: Q01DX001 (ip), vehicle: carboxymethylcellulose (CMC)
[5] = dose: 200.0 mg/kg/injection, schedule: Q01DX009 (ip), vehicle: saline
[6] = dose: 100.0 mg/kg/injection, schedule: Q01DX009 (ip), vehicle: saline with Tween-80
[7] = dose: 200.0 mg/kg/injection, schedule: Q01DX009 (ip), vehicle: saline with Tween-80
[8] = dose: 100.0 mg/kg/injection, schedule: Q01DX009 (ip), vehicle: saline
[9] = dose: 100.0 mg/kg/injection, schedule: Q04DX003 (ip), vehicle: saline
[10] = dose: 200.0 mg/kg/injection, schedule: Q04DX003 (ip), vehicle: saline
[11] = dose: 50.0 mg/kg/injection, schedule: Q01DX009 (ip), vehicle: saline
[12] = dose: 25.0 mg/kg/injection, schedule: Q01DX009 (ip), vehicle: Klucel (hydroxypropylcellulose) (HPC)
[13] = dose: 50.0 mg/kg/injection, schedule: Q01DX009 (ip), vehicle: Klucel (hydroxypropylcellulose) (HPC)
[14] = dose: 100.0 mg/kg/injection, schedule: Q01DX009 (ip), vehicle: Klucel (hydroxypropylcellulose) (HPC)
[15] = dose: 100.0 mg/kg/injection, schedule: Q04DX003 (ip), vehicle: Klucel (hydroxypropylcellulose) (HPC)
[16] = dose: 200.0 mg/kg/injection, schedule: Q01DX009 (ip), vehicle: Klucel (hydroxypropylcellulose) (HPC)
[17] = dose: 200.0 mg/kg/injection, schedule: Q04DX003 (ip), vehicle: Klucel (hydroxypropylcellulose) (HPC)
[18] = dose: 400.0 mg/kg/injection, schedule: Q01DX009 (ip), vehicle: Klucel (hydroxypropylcellulose) (HPC)
[19] = dose: 400.0 mg/kg/injection, schedule: Q04DX003 (ip), vehicle: Klucel (hydroxypropylcellulose) (HPC)

CC1(C)CN1P(=S)(N1CC1(C)C)N1CC1(C)C (centres undefined)
T/C [1]: 98 % of control | T/C (dose: 14.0 mg/kg/injection, schedule: Q01DX009 (ip), vehicle: saline): 109 % of control | T/C (dose: 22.0 mg/kg/injection, schedule: Q01DX009 (ip), vehicle: saline): 112 % of control | T/C [2]: 94 % of control | T/C (dose: 33.0 mg/kg/injection, schedule: Q01DX009 (ip), vehicle: saline): 152 % of control | T/C (dose: 44.0 mg/kg/injection, schedule: Q01DX001 (ip), vehicle: other): 121 % of control | T/C [3]: 166 % of control and 169 % of control | T/C (dose: 100.0 mg/kg/injection, schedule: Q01DX001 (ip), vehicle: other): 153 % of control | T/C (dose: 150.0 mg/kg/injection, schedule: Q01DX001 (ip), vehicle: other): 158 % of control | T/C [4]: 164 % of control | T/C [5]: 120 % of control

COC(=N)Cc1ccc(F)cc1
T/C (dose: 75.0 mg/kg/injection, schedule: Q01DX009 (ip), vehicle: saline with Tween-80): 111 % of control | T/C (dose: 150.0 mg/kg/injection, schedule: Q01DX009 (ip), vehicle: saline with Tween-80): 112 % of control | T/C (dose: 300.0 mg/kg/injection, schedule: Q01DX009 (ip), vehicle: saline with Tween-80): 112 % of control

CCOC(=O)c1c[nH]n2c(=S)ncnc12
T/C [6]: 96 % of control | T/C (dose: 100.0 mg/kg/injection, schedule: Q04DX003 (ip), vehicle: saline with Tween-80): 98 % of control | T/C [7]: 97 % of control | T/C (dose: 200.0 mg/kg/injection, schedule: Q04DX003 (ip), vehicle: saline with Tween-80): 104 % of control | T/C (dose: 400.0 mg/kg/injection, schedule: Q04DX003 (ip), vehicle: saline with Tween-80): 102 % of control

CC(=O)Nc1cc2c(cc1Br)-c1ccccc1C2O (centres undefined)
T/C [3]: 98 % of control | T/C (dose: 110.0 mg/kg/injection, schedule: Q01DX Z (ip), vehicle: other): 98 % of control | T/C (dose: 166.0 mg/kg/injection, schedule: Q01DX Z (ip), vehicle: other): 101 % of control | T/C [4]: 97 % of control | T/C (dose: 250.0 mg/kg/injection, schedule: Q01DX Z (ip), vehicle: other): 98 % of control | T/C (dose: 296.0 mg/kg/injection, schedule: Q01DX Z (ip), vehicle: saline): 103 % of control | T/C (dose: 444.0 mg/kg/injection, schedule: Q01DX Z (ip), vehicle: saline): 105 % of control | T/C (dose: 560.0 mg/kg/injection, schedule: Q01DX Z (ip), vehicle: other): 103 % of control | T/C (dose: 666.0 mg/kg/injection, schedule: Q01DX Z (ip), vehicle: saline): 106 % of control

COCC(N)=O
T/C [8]: 95 % of control | T/C [9]: 107 % of control | T/C [5]: 97 % of control | T/C [10]: 107 % of control | T/C (dose: 400.0 mg/kg/injection, schedule: Q01DX009 (ip), vehicle: saline): 97 % of control | T/C (dose: 400.0 mg/kg/injection, schedule: Q04DX003 (ip), vehicle: saline): 101 % of control

C[N+](C)(C)CCOC(=O)c1cccc(CBr)c1
T/C [11]: 92 % of control | T/C [8]: 95 % of control | T/C [9]: 98 % of control | T/C [5]: 93 % of control | T/C [10]: 105 % of control

O=C1C=CC(=O)C(c2ccccc2)=C1
T/C (dose: 6.0 mg/kg/injection, schedule: Q04DX003 (ip), vehicle: Klucel (hydroxypropylcellulose) (HPC)): 95 % of control | T/C (dose: 12.0 mg/kg/injection, schedule: Q01DX001 (ip), vehicle: saline): 104 % of control | T/C (dose: 12.0 mg/kg/injection, schedule: Q01DX009 (ip), vehicle: Klucel (hydroxypropylcellulose) (HPC)): 90 % of control | T/C (dose: 12.0 mg/kg/injection, schedule: Q04DX003 (ip), vehicle: Klucel (hydroxypropylcellulose) (HPC)): 98 % of control | T/C (dose: 25.0 mg/kg/injection, schedule: Q01DX001 (ip), vehicle: saline): 100 % of control | T/C [12]: 100 % of control | T/C (dose: 25.0 mg/kg/injection, schedule: Q04DX003 (ip), vehicle: Klucel (hydroxypropylcellulose) (HPC)): 98 % of control | T/C [13]: 100 % of control

COC(=O)C1=C(\N2CCOCC2)CCCC/C=C\1C(=O)OC
T/C [3]: 108 % of control | T/C [4]: 105 % of control | T/C (dose: 400.0 mg/kg/injection, schedule: Q01DX001 (ip), vehicle: carboxymethylcellulose (CMC)): 102 % of control

O=C(CCCN1CC=C(c2ccccc2)CC1)c1ccc(N2CCC(O)(c3ccc(Cl)cc3)CC2)cc1
T/C (dose: 100.0 mg/kg/injection, schedule: Q01DX001 (ip), vehicle: Klucel (hydroxypropylcellulose) (HPC)): 89 % of control | T/C (dose: 200.0 mg/kg/injection, schedule: Q01DX001 (ip), vehicle: Klucel (hydroxypropylcellulose) (HPC)): 95 % of control | T/C (dose: 400.0 mg/kg/injection, schedule: Q01DX001 (ip), vehicle: Klucel (hydroxypropylcellulose) (HPC)): 92 % of control

CCCC(=O)NN=C(C)C
T/C [1]: 109 % of control | T/C [2]: 109 % of control | T/C [11]: 95 % of control

CC(=O)OCC1OC(NC(=O)N(CCCl)N=O)C(OC(C)=O)C(OC(C)=O)C1OC(C)=O (centres undefined)
T/C (dose: 6.0 mg/kg/injection, schedule: Q01DX001 (ip), vehicle: saline with Tween-80): 246 % of control | T/C (dose: 9.0 mg/kg/injection, schedule: Q01DX001 (ip), vehicle: saline with Tween-80): 342 % of control | T/C (dose: 13.0 mg/kg/injection, schedule: Q01DX001 (ip), vehicle: saline with Tween-80): 428 % of control | T/C (dose: 20.0 mg/kg/injection, schedule: Q01DX001 (ip), vehicle: saline with Tween-80): 393 % of control | T/C (dose: 30.0 mg/kg/injection, schedule: Q01DX001 (ip), vehicle: saline with Tween-80): 324 % of control

c1ccc(-c2cnoc2-c2ccccc2)cc1
T/C [14]: 107 % of control | T/C [15]: 111 % of control | T/C [16]: 106 % of control | T/C [17]: 95 % of control | T/C [18]: 102 % of control | T/C [19]: 101 % of control

CCN1C(=O)CSC1=S
T/C (dose: 100.0 mg/kg/injection, schedule: Q01DX001 (ip), vehicle: saline): 101 % of control | T/C (dose: 100.0 mg/kg/injection, schedule: Q04DX003 (ip), vehicle: other): 92 % of control and 96 % of control | T/C (dose: 200.0 mg/kg/injection, schedule: Q01DX001 (ip), vehicle: saline): 101 % of control | T/C (dose: 200.0 mg/kg/injection, schedule: Q04DX003 (ip), vehicle: other): 110 % of control and 89 % of control | T/C (dose: 400.0 mg/kg/injection, schedule: Q01DX001 (ip), vehicle: saline): 102 % of control | T/C (dose: 400.0 mg/kg/injection, schedule: Q04DX003 (ip), vehicle: other): 96 % of control

COc1ccc2cc(Br)ccc2c1
T/C [6]: 107 % of control | T/C [7]: 102 % of control | T/C (dose: 400.0 mg/kg/injection, schedule: Q01DX009 (ip), vehicle: saline with Tween-80): 102 % of control

CC(C)(O)C(=O)NC/C=C/c1ccccc1
T/C (dose: 25.0 mg/kg/injection, schedule: Q01DX009 (ip), vehicle: saline with Tween-80): 93 % of control | T/C (dose: 50.0 mg/kg/injection, schedule: Q01DX009 (ip), vehicle: saline with Tween-80): 93 % of control | T/C [6]: 93 % of control

O=S(=O)(O)c1ccccn1
T/C [9]: 98 % of control | T/C [10]: 93 % of control

CC(C)c1ccccc1NC1=NCCO1
T/C (dose: 12.5 mg/kg/injection, schedule: Q01DX009 (ip), vehicle: Klucel (hydroxypropylcellulose) (HPC)): 86 % of control | T/C [12]: 89 % of control | T/C (dose: 25.0 mg/kg/injection, schedule: Q04DX002 (ip), vehicle: saline with Tween-80): 101 % of control | T/C [13]: 96 % of control and 89 % of control | T/C (dose: 50.0 mg/kg/injection, schedule: Q04DX002 (ip), vehicle: saline with Tween-80): 96 % of control | T/C (dose: 100.0 mg/kg/injection, schedule: Q04DX002 (ip), vehicle: saline with Tween-80): 86 % of control | T/C (dose: 200.0 mg/kg/injection, schedule: Q04DX002 (ip), vehicle: saline with Tween-80): 86 % of control

C(/C=N/N(c1ccccc1)c1ccccc1)=N\N(c1ccccc1)c1ccccc1
T/C [14]: 97 % of control | T/C [15]: 101 % of control | T/C [16]: 92 % of control | T/C [17]: 106 % of control | T/C [18]: 95 % of control | T/C [19]: 93 % of control

Reference: PubChem BioAssay AID248 (DTP/NCI, 2004)
